Measurements as given in patent US12258360B2, “Compositions and methods for treatment of anticancer-drug resistant cancers” (THE GEORGE WASHINGTON UNIVERSITY, priority 2020, dated 2025).

Legend:
And-1 = target: T1, And-1 (Homo sapiens, UniProt O75717); experiment: fluorescent boron sensor DAHMI staining of live IGROV1 cells; format: cell-based; parameters: endogenous in cells; host or cells: IGROV1 CR
T1 sequence (O75717 1-1129): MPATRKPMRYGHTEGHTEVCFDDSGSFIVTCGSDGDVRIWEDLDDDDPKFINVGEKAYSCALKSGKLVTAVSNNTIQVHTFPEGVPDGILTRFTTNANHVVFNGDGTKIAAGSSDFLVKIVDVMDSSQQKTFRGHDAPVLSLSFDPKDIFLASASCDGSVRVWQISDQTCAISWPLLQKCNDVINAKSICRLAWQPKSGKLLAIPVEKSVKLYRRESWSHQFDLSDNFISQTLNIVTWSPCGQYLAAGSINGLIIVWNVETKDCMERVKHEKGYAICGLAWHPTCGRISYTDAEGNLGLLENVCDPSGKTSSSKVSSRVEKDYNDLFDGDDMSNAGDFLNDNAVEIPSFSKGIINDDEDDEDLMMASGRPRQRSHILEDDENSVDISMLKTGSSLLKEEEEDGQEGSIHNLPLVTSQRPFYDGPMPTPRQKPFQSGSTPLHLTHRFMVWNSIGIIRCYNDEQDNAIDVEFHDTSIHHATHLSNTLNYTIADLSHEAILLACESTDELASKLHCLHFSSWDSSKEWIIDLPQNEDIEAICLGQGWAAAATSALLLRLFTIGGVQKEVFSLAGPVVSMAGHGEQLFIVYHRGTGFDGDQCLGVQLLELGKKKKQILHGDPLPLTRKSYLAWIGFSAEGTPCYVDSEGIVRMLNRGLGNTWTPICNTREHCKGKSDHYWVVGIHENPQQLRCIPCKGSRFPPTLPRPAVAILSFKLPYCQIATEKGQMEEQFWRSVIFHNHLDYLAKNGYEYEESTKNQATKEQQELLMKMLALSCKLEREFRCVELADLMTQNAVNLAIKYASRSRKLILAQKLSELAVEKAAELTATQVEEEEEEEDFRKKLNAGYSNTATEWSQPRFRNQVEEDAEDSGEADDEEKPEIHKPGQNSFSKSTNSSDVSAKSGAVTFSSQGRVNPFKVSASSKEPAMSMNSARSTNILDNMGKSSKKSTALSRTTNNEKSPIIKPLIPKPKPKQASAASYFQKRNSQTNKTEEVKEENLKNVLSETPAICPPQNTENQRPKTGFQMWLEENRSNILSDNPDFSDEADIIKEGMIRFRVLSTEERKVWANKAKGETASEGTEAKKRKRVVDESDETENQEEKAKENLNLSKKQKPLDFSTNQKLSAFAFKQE
Source text: Boron-containing compounds can be visualized using a fluorescent boron sensor DAHMI. To determine the binding specificity of CH3 to And-1, the distribution of CH3 in live cells was examined using DAHMI.

IGROV1 CR cells = experiment: clonogenic assay, combination with cisplatin; format: cell-based, human
Protocol: Clonogenic survival assays were also performed. In brief, cells were seeded in 6-well dishes at a density of 500 cells per dish then treated with the cisplatin at the indicated concentrations (See FIGS. 23 and 24). Cells were then kept in the incubator for 10-14 days to allow colony formation. Colonies were visualized by crystal violet staining. Colonies with >50 cells were counted.

IGROV1 xenograft = format: in vivo, mice
Protocol: (§1) To evaluate the potency of And-1 inhibitors in vivo, IGROV1 or MCF7 cells were subcutaneously implanted into nude mice to form ovarian or breast tumors, respectively. In brief, 5-6 week-old female BALB/c athymic nude mice (CByJ.Cg-Foxn1nu/J, weighting 20-25 grams) were inoculated subcutaneously by injecting the OC cells, cisplatin resistant OC cells or breast cancer cells suspended in 100 μl ice-cold Matrigel/PBS (1:1, V:V; 5×10^6/mouse) into the dorsal flank of each mouse. When the average tumor volume reached 100-150 mm^3, the mice were randomized into subsequent experiment groups. For tumors treated with CH3 only, CH3 was given at 0 mg/kg, 20 mg/kg and 40 mg/kg via intraperitoneal injection twice a week for three weeks. […] The relative tumor volumes were calculated using the formula: a×(b^2)/2, for which a and b represented the longest and shortest diameters, respectively. During the drug treatment, the tumor volume and body weight were measured. Tumor samples were collected 4 days after final administration of the drug.

MCF7 xenograft = format: in vivo, mice
Protocol: as §1

And-1 polymerization = target: T2, And-1 polymerization (Homo sapiens, UniProt O75717); experiment: FLAG-And-1 / HA-And-1 co-immunoprecipitation in U2OS cells; format: cell-based
T2 construct: expressed in transfected cells; host or cells: U2OS
T2 sequence (O75717 1-1129): T1 sequence (O75717 1-1129)
Source text: Human And-1 exists as a homotrimer mediated by the SepB domain. To determine whether the interaction of CH3 with the WD40 domain can disrupt And-1 polymerization, resulting in exposure of CUL4B binding site on And-1 to CUL4B, both FLAG-And-1 and HA-And-1 were transfected into U2OS cells and the protein-protein interaction was examined in the presence of CH3.

## OB1OCc2cc(/C=C/c3ccc(Cl)c(Cl)c3)ccc21 [CH3]
And-1
  distribution of compound in live cells (DAHMI): detected in nuclei
IGROV1 CR cells
  synergy with cisplatin on clonogenic capacity: synergy with cisplatin to reduce clonogenic capacity
IGROV1 xenograft; IGROV1 xenograft
  And-1 expression in tumor (IHC): inhibited And-1 expression
  apoptosis in tumor (cleaved caspase-3 IHC): induced apoptosis in tumor
IGROV1 xenograft; IGROV1 xenograft, 20 or 40 mg/kg intraperitoneally, three weeks
  tumor growth: significantly reduced tumor growth
IGROV1 xenograft; mouse, in vivo
  systemic toxicity (body weight, H&E staining of heart, liver, kidney and lung): systemic toxicity or obvious side effects were not observed
MCF7 xenograft; MCF7 xenograft
  And-1 expression in tumor (IHC): inhibited And-1 expression
  apoptosis in tumor (cleaved caspase-3 IHC): induced apoptosis in tumor
MCF7 xenograft; MCF7 xenograft, 20 or 40 mg/kg intraperitoneally, three weeks
  tumor growth: significantly reduced tumor growth
MCF7 xenograft; mouse, in vivo
  systemic toxicity (body weight, H&E staining of heart, liver, kidney and lung): systemic toxicity or obvious side effects were not observed
And-1 polymerization
  interaction between HA-And-1 and FLAG-And-1: significantly decreased
